Patent US20240409585A1, “MACROCYCLIC IMMUNOMODULATORS” (priority 2021, published 2024)
Numbered stars: 1 amine (or outer) side, 2 acyl side, 3 side chain; on linkers, the order of the positions; unused ones are H or OH. Bridge positions count the residues as written; N and C are the ends. Square brackets hold non-standard residues; d marks the D form. Peptide text beside a SMILES is read from it. * marks the point of attachment. ξ: configuration not given here. X21 = CN(C)P(=O)(Oc1ccc(C[C@H](N[*:1])C(=O)[*:2])cc1)N(C)C; Phe(4-COOH) = N[C@@H](Cc1ccc(C(=O)O)cc1)C(=O)O; Phe(3,4-F2) = N[C@@H](Cc1ccc(F)c(F)c1)C(=O)O; Phe(4-CH2NH2) = NCc1ccc(C[C@H](N)C(=O)O)cc1; Bip = N[C@@H](Cc1ccc(-c2ccccc2)cc1)C(=O)O; Phe(3-OMe) = COc1cccc(C[C@H](N)C(=O)O)c1; Phe(3-Me) = Cc1cccc(C[C@H](N)C(=O)O)c1; Phe(2-Me) = Cc1ccccc1C[C@H](N)C(=O)O; 3Pal = N[C@@H](Cc1cccnc1)C(=O)O; 4Pal = N[C@@H](Cc1ccncc1)C(=O)O; Cha = N[C@@H](CC1CCCCC1)C(=O)O; Ile(3ξ) = CCC(C)[C@H](N)C(=O)O; Thr(3ξ) = CC(O)[C@H](N)C(=O)O; Carboxymethyl = O=C(O)C*; NMeA = CN[C@@H](C)C(=O)O; Nle = CCCC[C@H](N)C(=O)O; Orn = NCCC[C@H](N)C(=O)O; Dab = NCC[C@H](N)C(=O)O; Dap = NC[C@H](N)C(=O)O

These compounds were tested against T1, PE-labeled human PD-L1-Ig binding to Jurkat cell line over-expressing human PD-1 (Jurkat-PD-1) (Homo sapiens, UniProt Q15116) (assay: Jurkat-PD-1 Cell Binding High-Content Screening Assay (CBA): Method 1). Conditions: Jurkat HPDL1 PD1 IC50 (uM) (Method 1), Jurkat-hPD-1 cells, PE-labeled PD-L1-Ig 20 nM final.
T1 construct: expressed in transfected cells; host or cells: Jurkat
T1 sequence (Q15116 25-288): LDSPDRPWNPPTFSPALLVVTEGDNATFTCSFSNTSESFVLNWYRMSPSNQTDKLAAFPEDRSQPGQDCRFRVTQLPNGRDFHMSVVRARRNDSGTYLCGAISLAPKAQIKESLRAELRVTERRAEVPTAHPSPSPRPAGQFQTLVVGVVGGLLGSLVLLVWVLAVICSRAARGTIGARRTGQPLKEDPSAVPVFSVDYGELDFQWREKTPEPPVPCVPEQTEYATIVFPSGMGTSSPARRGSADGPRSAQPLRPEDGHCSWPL

| SMILES | IC50 [µM] |
| --- | --- |
| CC(C)C[C@@H]1NC(=O)[C@H](Cc2c[nH]c3ccccc23)NC(=O)[C@H](CC(=O)O)NC(=O)[C@H](Cc2ccc(OP(=O)(N(C)C)N(C)C)cc2)NC(=O)[C@H](Cc2ccccc2)NC(=O)CSC[C@@H](C(=O)N[C@@H](C)C(N)=O)NC(=O)[C@H](CO)NC(=O)[C@H](C(C)C)NC(=O)[C@H](CC(C)C)NC(=O)[C@H](CC(N)=O)NC(=O)[C@@H](C)NC(=O)[C@H](C)N(C)C(=O)[C@H](C(C)C)NC(=O)[C@H](Cc2ccc(-c3ccccc3)cc2)NC1=O [Compound 1764] ({CH2CO}-F[X21]DWL[Bip]V[NMeA][dA]NLVSCA-NH2; thioether N-14) | 0.04 |

Same assay, conditions: Jurkat-hPD-1 cells, PE-labeled PD-L1-Ig 20 nM final; read-out: Jurkat HPDL1 PD1 IC50 (uM) (Method 1)

| SMILES | IC50 [µM] |
| --- | --- |
| CC(C)C[C@@H]1NC(=O)[C@H](Cc2c[nH]c3ccccc23)NC(=O)[C@H](CC(=O)O)NC(=O)[C@H](Cc2ccncc2)NC(=O)[C@H](Cc2ccc(OCC(=O)O)cc2)NC(=O)CSC[C@@H](C(=O)N[C@@H](C)C(N)=O)NC(=O)[C@H](CO)NC(=O)[C@H](C(C)C)NC(=O)[C@H](CC(C)C)NC(=O)[C@H](CC(N)=O)NC(=O)[C@@H](CC(C)C)NC(=O)[C@H](C)N(C)C(=O)[C@H](C(C)C)NC(=O)[C@H](Cc2ccc(-c3ccccc3)cc2)NC1=O [Compound 1591] ({CH2CO}-Y(Carboxymethyl)[4Pal]DWL[Bip]V[NMeA][dL]NLVSCA-NH2; thioether N-14) | 0.03 |
| CC(C)C[C@@H]1NC(=O)[C@H](Cc2c[nH]c3ccccc23)NC(=O)[C@H](CC(=O)O)NC(=O)[C@H](Cc2ccncc2)NC(=O)[C@H](Cc2ccc(OCC(=O)O)cc2)NC(=O)CSC[C@@H](C(=O)N[C@H](CC(N)=O)C(N)=O)NC(=O)[C@H]([C@@H](C)O)NC(=O)[C@H](C(C)C)NC(=O)[C@H](CC2CCCCC2)NC(=O)[C@H](CCN)NC(=O)[C@@H](CC(C)C)NC(=O)[C@H](C)N(C)C(=O)[C@H](C(C)C)NC(=O)[C@H](Cc2ccc(-c3ccccc3)cc2)NC1=O [Compound 1903] ({CH2CO}-Y(Carboxymethyl)[4Pal]DWL[Bip]V[NMeA][dL][Dab][Cha]VTC[dN]-NH2; thioether N-14) | 0.04 |
| CC(C)C[C@@H]1NC(=O)[C@H](C)NC(=O)[C@@H](C)NC(=O)[C@H](C)N(C)C(=O)[C@H](C(C)C)NC(=O)[C@H](Cc2ccc(-c3ccccc3)cc2)NC(=O)[C@H](CC(C)C)NC(=O)[C@H](Cc2c[nH]c3ccccc23)NC(=O)[C@H](CC(=O)O)NC(=O)[C@H](Cc2ccc(O)cc2)NC(=O)[C@H](Cc2ccccc2)NC(=O)CSC[C@@H](C(=O)N[C@@H](C)C(N)=O)NC(=O)[C@H](CO)NC(=O)[C@H](C(C)C)NC1=O [Compound 1733] ({CH2CO}-FYDWL[Bip]V[NMeA][dA]ALVSCA-NH2; thioether N-14) | 0.01 |
| CC(C)C[C@@H]1NC(=O)[C@H](CCCN)NC(=O)[C@@H](CC(C)C)NC(=O)[C@H](C)N(C)C(=O)[C@H](C(C)C)NC(=O)[C@H](Cc2ccc(-c3ccccc3)cc2)NC(=O)[C@H](C(C)C)NC(=O)[C@H](Cc2c[nH]c3ccccc23)NC(=O)[C@H](CC(=O)O)NC(=O)[C@H](Cc2ccc(O)cc2)NC(=O)[C@H](CC(N)=O)NC(=O)CSC[C@@H](C(=O)N[C@@H](C)C(N)=O)NC(=O)[C@H]([C@@H](C)O)NC(=O)[C@H](C(C)C)NC1=O [Compound 1243] ({CH2CO}-NYDWV[Bip]V[NMeA][dL][Orn]LVTCA-NH2; thioether N-14) | 0.01 |
| CC(C)C[C@@H]1NC(=O)CSC[C@@H](C(=O)NCC(N)=O)NC(=O)[C@H](CO)NC(=O)[C@H](C(C)C)NC(=O)[C@H](CC(C)C)NC(=O)[C@H](CCCNC(=N)N)NC(=O)[C@@H](Cc2ccccc2)NC(=O)[C@H](C)N(C)C(=O)[C@H](CCCNC(=N)N)NC(=O)[C@H](Cc2ccc(-c3ccccc3)cc2)NC(=O)[C@H](C(C)C)NC(=O)[C@H](Cc2c[nH]c3ccccc23)NC(=O)[C@H](CC(=O)O)NC(=O)[C@H](Cc2ccc(O)cc2)NC1=O [Compound 1024] ({CH2CO}-LYDWV[Bip]R[NMeA][dF]RLVSCG-NH2; thioether N-14) | 0.15 |
| CC(C)C[C@H]1NC(=O)[C@H](C)N(C)C(=O)[C@H](C(C)C)NC(=O)[C@H](Cc2ccc(-c3ccccc3)cc2)NC(=O)[C@H](C(C)C)NC(=O)[C@H](Cc2c[nH]c3ccccc23)NC(=O)[C@H](CC(=O)O)NC(=O)[C@H](Cc2ccc(CN)cc2)NC(=O)[C@H](Cc2ccc(OCC(=O)O)cc2)NC(=O)CSC[C@@H](C(N)=O)NC(=O)[C@H](CO)NC(=O)[C@H](C(C)C)NC(=O)[C@H](CC2CCCCC2)NC(=O)[C@H](CC(N)=O)NC1=O [Compound 2243] ({CH2CO}-Y(Carboxymethyl)[Phe(4-CH2NH2)]DWV[Bip]V[NMeA][dL]N[Cha]VSC-NH2; thioether N-14) | 0.02 |
| CCC(C)[C@@H]1NC(=O)[C@H](Cc2ccc(-c3ccccc3)cc2)NC(=O)[C@H](C(C)C)NC(=O)[C@H](Cc2c[nH]c3ccccc23)NC(=O)[C@H](CC(=O)O)NC(=O)[C@H](Cc2cccc(OC)c2)NC(=O)[C@H](Cc2cccnc2)NC(=O)CSC[C@@H](C(=O)NCC(=O)N[C@@H](CN)C(=O)O)NC(=O)[C@H](C(C)O)NC(=O)[C@H](C(C)C)NC(=O)[C@H](CC2CCCCC2)NC(=O)[C@H](CC(N)=O)NC(=O)[C@@H](CC(C)C)NC(=O)[C@H](C)N(C)C1=O (stereo partly drawn) [Compound 2006] ({CH2CO}-[3Pal][Phe(3-OMe)]DWV[Bip][Ile(3ξ)][NMeA][dL]N[Cha]V[Thr(3ξ)]CG[Dap]-OH; thioether N-14) | 0.04 |
| CC(C)C[C@@H]1NC(=O)[C@H](Cc2c[nH]c3ccccc23)NC(=O)[C@H](CC(=O)O)NC(=O)[C@H](Cc2ccc(O)cc2)NC(=O)[C@H](Cc2ccccc2)NC(=O)CSC[C@@H](C(=O)NCC(N)=O)NC(=O)[C@H](CO)NC(=O)[C@H](C(C)C)NC(=O)[C@H](CC(C)C)NC(=O)[C@H](CCN)NC(=O)[C@@H](CC(C)C)NC(=O)[C@H](C)N(C)C(=O)[C@H](CCC(=O)O)NC(=O)[C@H](Cc2ccc(-c3ccccc3)cc2)NC1=O [Compound 1513] ({CH2CO}-FYDWL[Bip]E[NMeA][dL][Dab]LVSCG-NH2; thioether N-14) | 0.02 |
| Cc1ccccc1C[C@@H]1NC(=O)[C@H](CC(=O)O)NC(=O)[C@H](Cc2ccc(O)cc2)NC(=O)[C@H](CC(N)=O)NC(=O)CSC[C@@H](C(=O)N[C@@H](C)C(N)=O)NC(=O)[C@H]([C@@H](C)O)NC(=O)[C@H](C(C)C)NC(=O)[C@H](CC(C)C)NC(=O)[C@H](CCCNC(=N)N)NC(=O)[C@@H](CC(C)C)NC(=O)[C@H](C)N(C)C(=O)[C@H](CCCNC(=N)N)NC(=O)[C@H](Cc2ccc(-c3ccccc3)cc2)NC(=O)[C@H](C(C)C)NC1=O [Compound 1197] ({CH2CO}-NYD[Phe(2-Me)]V[Bip]R[NMeA][dL]RLVTCA-NH2; thioether N-14) | 0.36 |
| Cc1cccc(C[C@@H]2NC(=O)[C@H](CC(=O)O)NC(=O)[C@H](Cc3ccc(C(=O)O)cc3)NC(=O)[C@H](Cc3ccc(OCC(=O)O)cc3)NC(=O)CSC[C@@H](C(=O)N[C@@H](CCC(=O)O)C(N)=O)NC(=O)[C@H](CO)NC(=O)[C@H](C(C)C)NC(=O)[C@H](CC(C)C)NC(=O)[C@H](CC(N)=O)NC(=O)[C@@H](CC(C)C)NC(=O)[C@H](C)N(C)C(=O)[C@H](C(C)C)NC(=O)[C@H](Cc3ccc(-c4ccccc4)cc3)NC(=O)[C@H](CC(C)C)NC2=O)c1 [Compound 1604] ({CH2CO}-Y(Carboxymethyl)[Phe(4-COOH)]D[Phe(3-Me)]L[Bip]V[NMeA][dL]NLVSCE-NH2; thioether N-14) | 0.01 |
| CC(C)C[C@@H]1NC(=O)[C@H](CCCNC(=N)N)NC(=O)[C@H](Cc2ccc(F)c(F)c2)NC(=O)[C@H](C)N(C)C(=O)[C@H](CCCNC(=N)N)NC(=O)[C@H](Cc2ccc(-c3ccccc3)cc2)NC(=O)[C@H](C(C)C)NC(=O)[C@H](Cc2c[nH]c3ccccc23)NC(=O)[C@H](CC(=O)O)NC(=O)[C@H](Cc2ccc(O)cc2)NC(=O)[C@H](Cc2ccccc2)NC(=O)CSC[C@@H](C(=O)NCC(N)=O)NC(=O)[C@H](CO)NC(=O)[C@H](C(C)C)NC1=O [Compound 1015] ({CH2CO}-FYDWV[Bip]R[NMeA][Phe(3,4-F2)]RLVSCG-NH2; thioether N-14) | 0.16 |
| CC(C)C[C@@H]1NC(=O)[C@H](CCCNC(=N)N)NC(=O)[C@@H](CC(C)C)NC(=O)[C@H](C)N(C)C(=O)[C@H](CCCNC(=N)N)NC(=O)[C@H](Cc2ccc(-c3ccccc3)cc2)NC(=O)[C@H](C(C)C)NC(=O)[C@H](Cc2c[nH]c3ccccc23)NC(=O)[C@H](CC(=O)O)NC(=O)[C@H](Cc2cccnc2)NC(=O)[C@H](Cc2ccccc2)NC(=O)CSC[C@@H](C(=O)N[C@@H](C)C(N)=O)NC(=O)[C@H]([C@@H](C)O)NC(=O)[C@H](C(C)C)NC1=O [Compound 1101] ({CH2CO}-F[3Pal]DWV[Bip]R[NMeA][dL]RLVTCA-NH2; thioether N-14) | 0.29 |
| CCCC[C@@H]1NC(=O)CSC[C@@H](C(=O)NCC(N)=O)NC(=O)[C@H](CO)NC(=O)[C@H](C(C)C)NC(=O)[C@H](CC(C)C)NC(=O)[C@H](CC(=O)O)NC(=O)[C@H](CC(N)=O)NC(=O)[C@H](C)N(C)C(=O)[C@H](C(C)C)NC(=O)[C@H](Cc2ccc(-c3ccccc3)cc2)NC(=O)[C@H](CC(C)C)NC(=O)[C@H](Cc2c[nH]c3ccccc23)NC(=O)[C@H](CC(=O)O)NC(=O)[C@H](Cc2ccc(O)cc2)NC1=O [Compound 1828] ({CH2CO}-[Nle]YDWL[Bip]V[NMeA]NDLVSCG-NH2; thioether N-14) | 0.82 |
| CC(C)C[C@H]1NC(=O)[C@H](C)N(C)C(=O)[C@H](Cc2ccc(CN)cc2)NC(=O)[C@H](Cc2ccc(-c3ccccc3)cc2)NC(=O)[C@H](C(C)C)NC(=O)[C@H](Cc2c[nH]c3ccccc23)NC(=O)[C@H](CC(=O)O)NC(=O)[C@H](Cc2ccc(O)cc2)NC(=O)[C@H](Cc2ccncc2)NC(=O)CSC[C@@H](C(=O)N[C@@H](C)C(N)=O)NC(=O)[C@H](C(C)O)NC(=O)[C@H](C(C)C)NC(=O)[C@H](CC2CCCCC2)NC(=O)[C@H](CC(N)=O)NC1=O (stereo partly drawn) [Compound 2048] ({CH2CO}-[4Pal]YDWV[Bip][Phe(4-CH2NH2)][NMeA][dL]N[Cha]V[Thr(3ξ)]CA-NH2; thioether N-14) | 0.03 |
